According to paper PMC9606102, “[^89Zr]Zr-PSMA-617 PET/CT in biochemical recurrence of prostate cancer: first clinical experience from a pilot study including biodistribution and dose estimates” (European Journal of Nuclear Medicine and Molecular Imaging, 2022):
Values joined by “and” are separate entries in the source; they are usually repeats but may differ in a detail not shown here. Equal values may be shown once. “Also recorded” adds a separate entry of the source.

Columns and labels:
[1] = Adverse event recording after [^89Zr]Zr-PSMA-617 PET/CT; format: in vivo, human (patients); conditions: 7 patients, 111 ± 11 MBq i.v., during examination and 4 weeks follow-up
Protocol: Any adverse event was recorded during and after examination. Vital parameters as heart rate, blood pressure, body temperature, and oxygen saturation were closely monitored. Within a time interval of 4 weeks after [^89Zr]Zr-PSMA-617 PET/CT, patients were additionally interviewed about potential side effects.

[2] = Radiation dosimetry of [^89Zr]Zr-PSMA-617 (QDOSE / IDAC 2.1); format: in vivo, human (patients); design: TIAC (time-integrated activity coefficient): unit not given here
Protocol: Each patient underwent PET/CT imaging scans at 4 time points: 1 h, 24 h, 48 h, and 72 h post intravenous injection (p.i.) of 111 ± 11 MBq (mean ± standard deviation, range 97–129 MBq) [^89Zr]Zr-PSMA-617. All PET/CT imaging was performed on a Biograph mCT 40 scanner (Siemens Medical Solutions, Knoxville, TN, USA) comprising whole-body PET/CT scans extending from vertex to mid-femur in 3D mode. PET acquisition time duration was 4 min per bed position on the initial day of injection and extended up to 10 min on the last day. CT data were acquired in low-dose technique using an X-ray tube voltage of […] and a modulation of the tube current (CARE Dose4D, Siemens Erlangen; maximal tube current 30 mA) followed by reconstruction with a soft tissue reconstruction kernel (B31f) to a slice thickness of 5 mm (increment 2–4 mm). PET emission data was corrected for decay, randoms, and scatter. PET image reconstruction was performed applying an iterative 3-dimensional ordered-subset expectation maximization (OSEM) algorithm (3 iterations; 24 subsets) with gaussian filtering to a transaxial resolution of 5 mm at full width half maximum (FWHM). The matrix and the pixel size were 200 × 200 and 3.0 mm, respectively. Attenuation correction was performed using the low-dose CT data.
Mean absorbed radiation doses were estimated using the QDOSE program package (ABX-CRO, Dresden, Germany) considering the following organs as source organs: kidneys, liver, spleen, salivary glands (parotid gland and submandibular gland), and lacrimal gland. As a first step, volumetric co-registration of the different time points was performed by taking the first CT scan as reference. PET images, which were coupled to the CT images of the respective imaging session, were transformed according to the CT transformation matrix. Boundary VOIs which solely enclosed the source organs without interfering with the activity concentration of neighboring structures were manually drawn in the PET image that allowed the best organ delineation and then copied onto all other time-point scans. Manual adjustment of the boundary VOI for each time point was done when necessary, using the respective CT. Volume and activity estimation were performed within the boundary applying a fuzzy locally adaptive Bayesian (FLAB) segmentation algorithm for automatic volume delineation. The next step comprised mono-exponential regression of the serial measured activities using weighted least squares method and estimation of both, the time integrated activities (TIA) and the time-integrated activity coefficients (TIAC) in the source regions. As an approximation, a linear increase from t = 0 to the first acquisition time point was assumed, and the integration method for the first time interval was based on the trapezoidal method. Between the first and the last time point, a trapezoidal integration was used, whereas the TIA from the last time-point to infinity was calculated analytically by applying the mono-exponential fitting curve. The respective TIACs (often termed residence time) of the source organs were calculated by normalizing the TIA to the amount of activity administered. The total body TIA was calculated approximately using the total FOV volume of interest and the injected activity. As a further approximation, constant activity between t = 0 and the first acquisition time point was assumed, and the integration method for the first-time interval was based on the trapezoidal method. Between the first time point and infinity, the TIA was calculated analytically by using the mono-exponential fitting curve. Estimations of absorbed organ dose and effective dose were performed by the IDAC 2.1 software which is implemented in QDOSE [25–27]. The IDAC reference man was applied for the kidneys, the spleen, the liver, the heart and the intestine, and the sphere model for the salivary and lacrimal glands. […]

## O=C([O-])CN1CCN(CC(=O)[O-])CCN(CC(=O)NCC2CCC(C(=O)NC(Cc3ccc4ccccc4c3)C(=O)NCCCCC(NC(=O)NC(CCC(=O)O)C(=O)O)C(=O)O)CC2)CCN(CC(=O)[O-])CC1.[89Zr+4] (stereo not drawn) [[^89Zr]Zr-PSMA-617]
[1]
  Side effects / adverse events: not associated with any side effects; also recorded: no other side effects were observed
[2]; 111 MBq vs diagnostic activity of 200 MBq of the 68Ga tracers (ref 29, 30)
  Overall effective dose, times higher than PET with [^68Ga]Ga-PSMA-617 or [^68Ga]Ga-PSMA-11: 2–3 times
[2]; average of 7 patients, mean ± SD
  Effective dose: 0.0913 ± 0.0118 mSv/MBq
[2]; in absolute numbers, comparators ref 29, 30
  Absorbed doses of parotid glands and kidneys, times higher than [^68Ga]Ga-PSMA-617 and [^68Ga]Ga-PSMA-11: 3–4 times
[2]; kidneys, mean ± SD
  TIAC (time-integrated activity coefficient): 1.74 ± 0.44
  l (rate constant): 0.022 ± 0.002 h⁻¹
[2]; kidneys, mean ± SD, n = 7 patients
  A (% injected A0), monoexponential curve-fitting parameter: 3.75 ± 1.24 % injected A0
[2]; kidneys, mean ± SD, IDAC 2.1
  Absorbed dose: 0.517 ± 0.125 mGy/MBq
[2]; lacrimal gland, mean ± SD
  A (% injected A0), monoexponential curve-fitting parameter: 0.02 ± 0.01 % injected A0
  l (rate constant): 0.030 ± 0.006 h⁻¹
[2]; lacrimal gland, mean ± SD, sphere model
  Absorbed dose: 0.156 ± 0.070 mGy/MBq
[2]; liver, mean ± SD
  A (% injected A0), monoexponential curve-fitting parameter: 6.62 ± 1.39 % injected A0
  TIAC (time-integrated activity coefficient): 1.54 ± 0.49
  l (rate constant): 0.049 ± 0.014 h⁻¹
[2]; liver, mean ± SD, IDAC 2.1
  Absorbed dose: 0.158 ± 0.051 mGy/MBq
[2]; parotid gland, mean ± SD
  A (% injected A0), monoexponential curve-fitting parameter: 0.70 ± 0.20 % injected A0
  TIAC (time-integrated activity coefficient): 0.31 ± 0.10
  l (rate constant): 0.031 ± 0.005 h⁻¹
[2]; parotid gland, mean ± SD, sphere model
  Absorbed dose: 0.601 ± 0.185 mGy/MBq
[2]; spleen, mean ± SD
  A (% injected A0), monoexponential curve-fitting parameter: 1.25 ± 0.70 % injected A0
  TIAC (time-integrated activity coefficient): 0.21 ± 0.12
  l (rate constant): 0.079 ± 0.034 h⁻¹
[2]; spleen, mean ± SD, IDAC 2.1
  Absorbed dose: 0.175 ± 0.068 mGy/MBq
[2]; submandibular gland, mean ± SD
  A (% injected A0), monoexponential curve-fitting parameter: 0.27 ± 0.09 % injected A0
  TIAC (time-integrated activity coefficient): 0.13 ± 0.04
  l (rate constant): 0.029 ± 0.004 h⁻¹
[2]; submandibular gland, mean ± SD, sphere model
  Absorbed dose: 0.468 ± 0.136 mGy/MBq and 0.468 ± 0.185 mGy/MBq
